Patent US10602680B2, “Method of internal seed disinfection by combining seed priming with vacuum infiltration” (priority 2014, dated 2020)

How the values were obtained:
[1] = tested on: Acidovorax avenae subsp. citrulli; assay: 10 minute soak of externally infected diploid watermelon seeds in antibiotic solutions; type: in vivo
Procedure: The effectiveness of using an antibiotic solution combined with matrix priming for disinfecting triploid watermelon seeds internally infected with Acidovorax avenae subsp. citrulli has been tested. In order to screen for effective antibiotics, diploid watermelon seeds were obtained which were externally infected with Acidovorax avenae subsp. citrulli. […] Infected seeds were soaked for 10 minutes in antibiotic solutions of 100 ppm, 250 ppm, and 500 ppm of the above antibiotics. Dosage was chosen based on information reported by Layne Wade (21st Annual Tomato Disease Workshop, Asheville, N.C., November 2006) which stated that the MIC (minimum inhibitory concentration) of Kasugamycin on Acidovorax avenae subsp. citrulli is greater than 100 ppm.

[2] = tested on: triploid watermelon seeds; assay: Phytotoxicity screening by vacuum infiltration followed by matrix priming
Procedure: Step 110 involves choosing which species of seed will be sought to be disinfected. […] Thus, in step 130, a phytotoxicty screening is carried out on the chosen seeds using the chosen treatment. […] For example, the inventors screened the antibiotic Oxytetracycline using the method of adding chemicals to the water used in matrix priming (Eastin, J. A., 2000, U.S. Pat. No. 6,076,301) and the method of the present invention. Water containing 500 ppm of Oxytetracycline was used to prime triploid watermelon seeds using matrix priming. Further, the same seed was treated with vacuum infiltration using 500 ppm Oxytetracycline solutions for 6 hours, which was followed by a matrix priming using water. For a control, seed of the same lot was treated using vacuum infiltration with water, followed by matrix priming using water. Also, untreated seeds were preserved as an additional control.

[3] = tested on: Acidovorax avenae subsp. citrulli; settings: 1% solution, soak for 15 minutes; cited from earlier work
[4] = tested on: Acidovorax avenae subsp. citrulli; assay: 30 minute soak of infected diploid watermelon seeds, screening against the target disease; type: in vivo
Description: Substances with suitable levels of phytotoxicity are then screened for their affectivity against target diseases. For an example, the inventors screened the antibiotic piperacillin/tazobactam, and electrolyzed water for its affectivity against Acidovorax avenae subsp. citrulli on diploid watermelons seeds. […] This serves only as an example, and any method of screening can be used either in vivo or in vitro to screen for affectivity against target diseases and appropriate dose.

[5] = tested on: Xanthomonas campestris pv. Campestris; assay: Osmotic priming with PEG followed by vacuum infiltration of infected broccoli seeds: presence of disease; type: in vivo; settings: osmotic priming for 4 days followed by 6 hours of vacuum infiltration with 500 ppm
Procedure: Determination of proper length of priming treatment and vacuum filtration treatment are performed on an empirical basis. For an example, the inventors identified proper treatment length in the following manner. A lot of broccoli seeds infected with Xanthomonas campestris pv. Campestris were treated with the following treatment regiments. […] Seeds were tested after treatments for both germination and presence of the disease Xanthomonas campestris pv. Campestris.

[6] = tested on: Acidovorax avenae subsp. citrulli; settings: on Acidovorax avenae subsp. citrulli; reported by Layne Wade, 2006; cited from earlier work
[7] = further screening using the same format, concentrations not given

Molecule | elimination of bacteria on seeds ([1]; 250 ppm) | elimination of bacteria on seeds ([1]; 500 ppm) | phytotoxicity ([2]; in vivo) | further results
CCn1cc(C(=O)O)c(=O)c2cc3c(cc21)OCO3 [Oxalinic acid] | effective | effective | phytotoxic | –
Trimethoprim-sulfamethoxazole | effective | effective | – | –
[Ca+2].[O-]Cl.[O-]Cl [calcium hypochlorite] | – | – | – | elimination from watermelon seeds [3]: not effective
CO/N=C(\C(=O)N[C@@H]1C(=O)N2C(C(=O)O)=C(CSc3nc(=O)c(=O)[nH]n3C)CS[C@H]12)c1csc(N)n1 [Ceftriaxone sodium] | – | – | no phytotoxic effects | elimination of bacteria on seeds ([1]; any dose (100 ppm, 250 ppm, 500 ppm)): not effective
O=P([O-])([O-])[O-].[Na+].[Na+].[Na+] [trisodium phosphate] | – | – | – | phytotoxicity [2, 7]: phytotoxic
Colistin sulphate | effective | effective | – | phytotoxicity [2, 7]: mild phytotoxic effects
Piperacillin/tazobactam | effective | effective | – | elimination of the bacteria ([4]; 100 ppm): not effective; elimination of the bacteria ([4]; 250 ppm): effective; eradication of seed borne disease [5]: eradicated
C[C@H]1O[C@H](O[C@H]2[C@H](O)[C@@H](O)[C@@H](O)[C@H](O)[C@@H]2O)[C@@H](N)C[C@@H]1NC(=N)C(=O)O [Kasugamycin] | effective | effective | – | MIC (minimum inhibitory concentration) [6]: greater than 100 ppm
O=C(N[C@H](CO)[C@H](O)c1ccc([N+](=O)[O-])cc1)C(Cl)Cl [Chloramphenicol] | effective | effective | phytotoxic | –
